The values below come from patent US20260317299A1, “PIKFYVE PROTEIN KINASE DEGRADATION AGENT AND USE THEREOF” (Shanghai Institute of Organic Chemistry, Chinese Academy of …, priority 2023, published 2026).

T1 sequence (Q9Y2I7 whole entry): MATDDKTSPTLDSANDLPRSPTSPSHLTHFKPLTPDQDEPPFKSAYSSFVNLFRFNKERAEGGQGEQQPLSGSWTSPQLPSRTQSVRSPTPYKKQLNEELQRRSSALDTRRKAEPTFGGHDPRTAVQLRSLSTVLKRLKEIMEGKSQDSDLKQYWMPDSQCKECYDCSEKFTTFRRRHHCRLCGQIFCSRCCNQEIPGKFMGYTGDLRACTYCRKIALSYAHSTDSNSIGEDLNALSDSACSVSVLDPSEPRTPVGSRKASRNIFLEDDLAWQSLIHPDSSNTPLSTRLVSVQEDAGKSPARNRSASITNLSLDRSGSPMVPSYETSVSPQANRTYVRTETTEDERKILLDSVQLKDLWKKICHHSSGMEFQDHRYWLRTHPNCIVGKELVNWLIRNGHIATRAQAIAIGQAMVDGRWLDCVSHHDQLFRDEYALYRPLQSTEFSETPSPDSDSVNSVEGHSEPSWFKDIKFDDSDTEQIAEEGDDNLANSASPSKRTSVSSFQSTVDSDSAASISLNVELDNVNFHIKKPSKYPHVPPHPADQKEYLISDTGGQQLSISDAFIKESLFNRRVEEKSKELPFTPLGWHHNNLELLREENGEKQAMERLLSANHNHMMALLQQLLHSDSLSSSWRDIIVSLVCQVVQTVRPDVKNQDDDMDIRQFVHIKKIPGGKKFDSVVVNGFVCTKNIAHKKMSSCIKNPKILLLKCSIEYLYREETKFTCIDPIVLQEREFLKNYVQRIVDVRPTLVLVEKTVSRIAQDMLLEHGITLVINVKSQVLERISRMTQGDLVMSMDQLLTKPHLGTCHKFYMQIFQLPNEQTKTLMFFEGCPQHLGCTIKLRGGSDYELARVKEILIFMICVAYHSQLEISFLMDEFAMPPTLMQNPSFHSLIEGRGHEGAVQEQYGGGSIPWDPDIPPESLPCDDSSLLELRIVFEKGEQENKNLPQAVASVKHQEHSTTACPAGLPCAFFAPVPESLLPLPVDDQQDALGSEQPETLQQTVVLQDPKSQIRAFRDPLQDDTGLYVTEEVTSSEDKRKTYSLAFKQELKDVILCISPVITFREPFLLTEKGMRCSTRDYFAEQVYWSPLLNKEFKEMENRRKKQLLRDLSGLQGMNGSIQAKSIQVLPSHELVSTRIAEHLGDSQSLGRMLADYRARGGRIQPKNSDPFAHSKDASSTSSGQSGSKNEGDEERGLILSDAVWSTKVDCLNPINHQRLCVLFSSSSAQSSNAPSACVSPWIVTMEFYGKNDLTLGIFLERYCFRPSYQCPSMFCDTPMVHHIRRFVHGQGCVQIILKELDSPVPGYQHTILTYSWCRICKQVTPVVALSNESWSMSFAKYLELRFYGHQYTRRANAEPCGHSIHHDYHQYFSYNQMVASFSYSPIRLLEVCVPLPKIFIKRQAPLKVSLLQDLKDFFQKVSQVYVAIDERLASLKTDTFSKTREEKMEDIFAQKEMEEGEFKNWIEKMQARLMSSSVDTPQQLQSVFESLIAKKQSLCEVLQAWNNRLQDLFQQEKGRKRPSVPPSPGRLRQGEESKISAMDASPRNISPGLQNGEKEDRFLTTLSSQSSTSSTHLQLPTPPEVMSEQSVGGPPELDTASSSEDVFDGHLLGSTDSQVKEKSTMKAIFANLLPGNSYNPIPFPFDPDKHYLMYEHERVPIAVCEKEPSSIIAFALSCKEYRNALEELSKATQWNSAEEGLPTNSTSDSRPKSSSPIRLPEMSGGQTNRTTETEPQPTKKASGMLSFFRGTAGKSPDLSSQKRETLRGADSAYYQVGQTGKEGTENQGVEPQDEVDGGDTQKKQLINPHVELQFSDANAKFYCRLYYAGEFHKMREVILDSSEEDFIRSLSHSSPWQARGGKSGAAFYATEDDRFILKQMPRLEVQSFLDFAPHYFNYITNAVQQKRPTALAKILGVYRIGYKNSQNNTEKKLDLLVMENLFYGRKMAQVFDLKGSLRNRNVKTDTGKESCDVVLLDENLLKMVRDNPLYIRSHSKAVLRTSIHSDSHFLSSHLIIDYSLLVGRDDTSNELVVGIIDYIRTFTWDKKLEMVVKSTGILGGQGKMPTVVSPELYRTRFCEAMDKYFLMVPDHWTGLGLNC

The assay concerns the target T1, PIKfyve (Homo sapiens, UniProt Q9Y2I7).
T1 construct: endogenous in cells; host or cells: VCaP
Nature of the assay: Degradation of PIKfyve proteins in VCaP tumor cells (24 h, Western blot). In kind it is cell-based. The settings on record: 37° C., compared with DMSO control, WB, read-out: DC50 (concentration that achieves 50% degradation activity). The protocol: Method: 200 μL of cells at a density of 5×10^6 cells/ml were inoculated into a 6-well plate, and then different concentrations of drugs were added. The cells were treated at 37° C. for 24 h. The […] was collected and washed with PBS twice. Then, 100-200 μL of 1×SDS lysate was added, and the cell lysate was collected into a centrifuge tube. The cells were disrupted ultrasonically for 10-20 sec, and boiled for 10 min. Protein samples were subjected to SDS-PAGE electrophoresis at a voltage of 90 V, transferred to PVDF membranes at 110 V, blocked with 5% BSA for 4 h, incubated with primary antibodies (PIKfyve, GAPDH) at 4° C. overnight, and incubated with secondary antibodies (anti-Rabbit IgG or anti-Mouse IgG) at room temperature. The membranes were washed with TBST buffer, developed with an ECL developing solution, and then imaged to obtain protein band signals, with single-concentration WB results as shown in FIG. 1. Compared with the DMSO control group, the concentration that achieves 50% degradation activity is defined as DC50.
For orientation: A western blot detects proteins with antibodies after separation by electrophoresis.
Consider `Cc1cccc(-c2ccn(-c3cc(N4CCOCC4)nc(OCCc4ccc(C#CC5CCN(C(=O)C[C@H](NC(=O)[C@@H]6C[C@@H](O)CN6C(=O)[C@@H](NC(=O)C6(F)CC6)C(C)(C)C)c6ccc(-c7scnc7C)cc6)CC5)cc4)n3)n2)c1` [Example 70, (2S,4R)-1-((S)-2-(1-fluorocyclopropane-1-carboxamido)-3,3-dimethylbutanoyl)-4-hydroxy-N—((S)-1-(4-(4-methylthiazol-5-yl)phenyl)-3-(4-((4-(2-((4-morpholino-6-(3-(m-tolyl)-1H-pyrazol-1-yl)pyrimidin-2-yl)oxy)ethyl)phenyl)ethynyl)piperidin-1-yl)-3-oxopropyl) pyrrolidine-2-carboxamide], for which the DC50 lay within 1 to 100 nM.
The value for `Cc1cccc(/C=N/Nc2cc(N3CCOCC3)nc(OCCc3ccc(NC(=O)CCCCCCC(=O)Nc4ccc5c(c4)CN(C4CCC(=O)NC4=O)C5=O)cc3)n2)c1` (stereo not drawn) [Example 26, (E)-N^1-(2-(2,6-dioxopiperidin-3-yl)-1-oxoisoindolin-5-yl)-N^8-(4-(2-((4-(2-(3-methylbenzylidene)hydrazino)-6-morpholinopyrimidin-2-yl)oxy)ethyl)phenyl)octanediamide] was 100 to 10000 nM; that for `Cc1cccc(/C=N/Nc2cc(N3CCOCC3)nc(OCCc3ccc(NC(=O)CCCNC(=O)COc4cc(-c5scnc5C)ccc4CNC(=O)[C@@H]4C[C@@H](O)CN4C(=O)[C@@H](NC(=O)C4(F)CC4)C(C)(C)C)cc3)n2)c1` [Example 55, (2S,4R)-1-((S)-2-(1-fluorocyclopropane-1-carboxamido)-3,3-dimethylbutanoyl)-4-hydroxy-N-(2-(2-((4-((4-(2-((4-(2-((E)-3-methylbenzylidene)hydrazino)-6-morpholinopyrimidin-2-yl)oxy)ethyl)phenyl)amino)-4-oxobutyl)amino)-2-oxoethoxy)-4-(4-methylthiazol-5-yl)benzyl)pyrrolidine-2-carboxamide] was 1 to 100 nM; that for `Cc1cccc(/C=N/Nc2cc(N3CCOCC3)nc(OCCc3ccc(NC(=O)CCC(=O)N[C@H](C(=O)N4C[C@H](O)C[C@H]4C(=O)NCc4ccc(-c5scnc5C)cc4)C(C)(C)C)cc3)n2)c1` [Example 37, N^1—((S)-1-((2S,4R)-4-hydroxy-2-((4-(4-methylthiazol-5-yl)benzyl)carbamoyl)pyrrolidine-1-yl)-3,3-dimethyl-1-oxobutan-2-yl)-N^4-(4-(2-((4-(2-((E)-3-methylbenzylidene) hydrazino)-6-morpholinopyrimidin-2-yl)oxy)ethyl)phenyl)succinimide] was 100 to 10000 nM.
The value for `Cc1cccc(/C=N/Nc2cc(N3CCOCC3)nc(OCCc3ccc(NC(=O)CCCCCNc4cccc5c4C(=O)N(C4CCC(=O)NC4=O)C5=O)cc3)n2)c1` (stereo not drawn) [Example 13, (E)-6-((2-(2,6-dioxopiperidin-3-yl)-1,3-dioxoisoindolin-4-yl)amino)-N-(4-(2-((4-(2-(3-methylbenzylidene)hydrazino)-6-morpholinopyrimidin-2-yl)oxy)ethyl)phenyl)hexanamide] was 100 to 10000 nM.
Under `Cc1cccc(/C=N/Nc2cc(N3CCOCC3)nc(OCCc3ccc(NC(=O)CCCCCCCCC(=O)Nc4ccc5c(c4)CN(C4CCC(=O)NC4=O)C5=O)cc3)n2)c1` (stereo not drawn) [Example 27, (E)-N^1-(2-(2,6-dioxopiperidin-3-yl)-1-oxoisoindolin-5-yl)-N^10-(4-(2-((4-(2-(3-methylbenzylidene)hydrazino)-6-morpholinopyrimidin-2-yl)oxy)ethyl)phenyl)decanediamide] stands 1 to 100 nM.
